Reference: patent US11814364B2, “Pyridine N-oxide derivatives useful as factor XIa inhibitors” (Janssen Pharmaceutica NV, priority 2021, dated 2023)

Target: human plasma kallikrein (Homo sapiens, UniProt P03952)
Experiment: Kallikrein inhibition FLINT assay with quenched AMC peptide substrate Z-Gly-Pro-Arg-AMC (end point EP or kinetic KIN reads)
Type: biochemical
Conditions: kinetic reads at 5 min intervals over 30 min; read-out: Kallikrein (KIN) IC50
Procedure, shortened: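 Enzyme and compound were preincubated 30 min before adding 50 μM AMC substrate in pH 7.5 Tris/NaCl/CaCl2/BSA/CHAPS buffer. AMC release was read at 30 min endpoint or every 5 min.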

Chain of human plasma kallikrein (P03952 391-638 limits assumed): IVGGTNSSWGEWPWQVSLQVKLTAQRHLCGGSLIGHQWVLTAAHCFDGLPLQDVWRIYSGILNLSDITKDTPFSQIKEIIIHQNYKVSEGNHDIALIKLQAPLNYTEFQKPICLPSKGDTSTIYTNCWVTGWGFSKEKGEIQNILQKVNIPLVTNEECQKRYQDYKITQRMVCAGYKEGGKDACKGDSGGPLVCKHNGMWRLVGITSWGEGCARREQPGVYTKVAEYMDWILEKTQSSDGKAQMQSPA
Chain of human plasma kallikrein (P03952 20-390 partner limits assumed): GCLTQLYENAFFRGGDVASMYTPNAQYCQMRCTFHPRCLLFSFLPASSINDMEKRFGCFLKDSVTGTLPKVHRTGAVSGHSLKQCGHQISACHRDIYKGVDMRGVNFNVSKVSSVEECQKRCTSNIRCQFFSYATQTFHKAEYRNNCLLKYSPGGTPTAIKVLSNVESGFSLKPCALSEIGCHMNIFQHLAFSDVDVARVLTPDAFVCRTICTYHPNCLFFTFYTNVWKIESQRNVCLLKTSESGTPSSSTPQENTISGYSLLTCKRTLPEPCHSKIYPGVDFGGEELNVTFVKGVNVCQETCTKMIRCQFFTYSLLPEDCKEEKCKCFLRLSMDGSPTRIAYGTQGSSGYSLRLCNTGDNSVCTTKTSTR

Structure (SMILES)	IC50 [nM]
CN(CC(c1ccc(-c2c(-n3cnnn3)ccc(Cl)c2F)c[n+]1[O-])n1cc(-c2ccnc(C(F)(F)F)c2)cn1)C(=O)C1CCOCC1 (stereo not shown) [Example P407]	109
Nc1nc(Cl)c(-c2cnn(C(CC3CC3)c3ccc(-c4c(-n5cnnn5)ccc(Cl)c4F)c[n+]3[O-])c2)s1 (stereo not shown) [Example P624]	4.9
O=C(NC1CC1)c1ccc(-c2cnn(C(CC3CCCCO3)c3ccc(-c4c(-n5cnnn5)ccc(Cl)c4F)c[n+]3[O-])c2)cc1 (single isomer, unassigned) [Example P143]	58.1
Nc1ccc(-c2cnn(C(Cn3cc(F)cn3)c3ccc(-c4c(-n5cnnn5)ccc(Cl)c4F)c[n+]3[O-])c2)c(F)n1 (single isomer, unassigned) [Example P417]	77.1
COC(=O)Nc1ccc(-c2cnn(C(CC3CCCC3)c3ccc(-c4c(-n5cnnn5)ccc(Cl)c4F)c[n+]3[O-])c2)cc1 (stereo not shown) [Example P110]	123
NC(=O)c1ccc(-c2cnn(C(Cc3ccn(C(F)F)n3)c3ccc(-c4c(-n5cnnn5)ccc(Cl)c4F)c[n+]3[O-])c2)cc1F (single isomer, unassigned) [Example P932]	27
Cn1ncnc1-c1cnn(C(CCOC(F)F)c2ccc(-c3c(-n4cc(OC(F)F)nn4)ccc(Cl)c3F)c[n+]2[O-])c1 (stereo not shown) [Example P801]	84.1
CCC(c1ccc(-c2c(-n3cnnn3)ccc(Cl)c2F)c[n+]1[O-])n1cc(-c2ccc(NC(=O)OC)cc2)cn1 (stereo not shown) [Example P153]	108
Cn1cc(C[C@H](c2ccc(-c3c(-n4cc(Cl)nn4)ccc(Cl)c3F)c[n+]2[O-])n2cc(-c3ccnc(C(F)(F)F)c3)cn2)nn1 [Example P739]	22.8
[O-][n+]1cc(-c2c(-n3cnnn3)ccc(Cl)c2F)ccc1C(Cn1cccn1)n1cc(-c2ccnc(C(F)(F)F)c2)cn1 (single isomer, unassigned) [Example P514]	72.9
NC(=O)C1CC1CC(c1ccc(-c2c(-n3cnnn3)ccc(Cl)c2F)c[n+]1[O-])n1cc(-c2ccc(N)nc2F)cn1 (single isomer, unassigned) [Example P338]	74.5
[O-][n+]1cc(-c2c(-n3cnnn3)ccc(Cl)c2F)ccc1[C@@H](CCOC(F)F)n1cc(-c2scnc2Cl)cn1 [Example P582]	0.9
COC(=O)N(C)CC(c1ccc(-c2c(-n3cnnn3)ccc(Cl)c2F)c[n+]1[O-])n1cc(-c2ccnc(C(F)(F)F)c2)cn1 (single isomer, unassigned) [Example P381]	36.6
Cn1nnc(F)c1-c1cnn([C@H](CCOC(F)F)c2ccc(-c3c(-n4cc(C(F)(F)F)nn4)ccc(Cl)c3F)c[n+]2[O-])c1 [Example P754]	74.3
O=C(O)c1cc(-c2cnn(C(CC3CC3)c3ccc(-c4c(C(F)F)ccc(Cl)c4F)c[n+]3[O-])c2)c[nH]1 (stereo not shown) [Example Q24]	578
[O-][n+]1cc(-c2c(-n3cnnn3)ccc(Cl)c2F)ccc1C(Cn1nccc1C(F)(F)F)n1cc(-c2ccnc(F)c2)cn1 (stereo not shown) [Example P346]	11.8
NC(=O)c1ccc(-c2cnn(C(Cc3nccs3)c3ccc(-c4c(-n5cc(C(F)(F)F)nn5)ccc(Cl)c4F)c[n+]3[O-])c2)cc1F (single isomer, unassigned) [Example P942]	249
COc1cc(C(Cc2ccn(C(F)F)n2)n2cc(-c3ccc(C(N)=O)c(F)c3)cn2)[n+]([O-])cc1-c1c(C(F)F)ccc(Cl)c1F (stereo not shown) [Example Q75]	10
[O-][n+]1cc(-c2c(-n3cnnn3)ccc(Cl)c2F)ccc1[C@@H](CC1CC1)n1cc(-c2cn(C(F)F)nn2)cn1 [Example P594]	247
Cn1ncc(-c2cnn(C(CCOC(F)F)c3ccc(-c4c(-n5cnnn5)ccc(Cl)c4F)c[n+]3[O-])c2)cc1=O (stereo not shown) [Example P415]	184

Structure (SMILES)	IC50 [nM]
[O-][n+]1cc(-c2c(-n3cnnn3)ccc(Cl)c2F)ccc1C(Cn1cccn1)n1cc(-c2ccnc(C(F)F)c2)cn1 (stereo not shown) [Example P318]	13.9
NC(=O)C1CC1CC(c1ccc(-c2c(-n3cnnn3)ccc(Cl)c2F)c[n+]1[O-])n1cc(-c2cc[n+]([O-])cc2)cn1 (single isomer, unassigned) [Example P283]	74.5
[O-][n+]1cc(-c2c(-n3cc(C(F)(F)F)nn3)ccc(Cl)c2F)ccc1C(Cc1ccn(C(F)F)n1)n1cc(-c2ncnn2C(F)F)cn1 (single isomer, unassigned) [Example P837]	48.3
COC(=O)Nc1ccc(-c2cnn(C(CC3CCCCO3)c3ccc(-c4c(-n5cnnn5)ccc(Cl)c4F)c[n+]3[O-])c2)cc1 (stereo not shown) [Example P220]	13.9
NC(=O)c1ccc(-c2cnn(C(Cc3ccn(C(F)F)n3)c3ccc(-c4c(OC(F)F)ccc(Cl)c4F)c[n+]3[O-])c2)cc1F (single isomer, unassigned) [Example Q72]	544
COC(=O)Nc1ccc(-c2cnn(C(Cn3ccccc3=O)c3ccc(-c4c(-n5cnnn5)ccc(Cl)c4F)c[n+]3[O-])c2)cc1 (stereo not shown) [Example P305]	5.5
COC(=O)Nc1ccc(-c2cnn(C(Cc3ccc(F)cc3)c3ccc(-c4c(-n5cnnn5)ccc(Cl)c4F)c[n+]3[O-])c2)cc1 (stereo not shown) [Example P117]	9.7
O=C(O)c1ccc(-c2cnn(C(Cc3nccs3)c3ccc(-c4c(-n5cc(C(F)(F)F)nn5)ccc(Cl)c4F)c[n+]3[O-])c2)cc1F (stereo not shown) [Example P941]	12.2
N#Cc1cc(-c2cnn(C(CN3CCOC3=O)c3ccc(-c4c(-n5cnnn5)ccc(Cl)c4F)c[n+]3[O-])c2)ccn1 (single isomer, unassigned) [Example P439]	69.8
Cn1nccc1-c1cnn(C(Cn2cc(F)cn2)c2ccc(-c3c(C(F)F)ccc(Cl)c3F)c[n+]2[O-])c1 (stereo not shown) [Example Q30]	88.1
CC(C)(O)C[C@H](c1ccc(-c2c(-n3cnnn3)ccc(Cl)c2F)c[n+]1[O-])n1cc(-c2ccnn2C(F)F)cn1 [Example P648]	532
CC1CC1C[C@@H](c1ccc(-c2c(-n3cnnn3)ccc(Cl)c2F)c[n+]1[O-])n1cc(-c2c(F)nnn2C)cn1 (stereo partly shown) [Example P769]	> 100
Cn1nncc1-c1cnn([C@H](Cn2cc(F)cn2)c2ccc(-c3c(-n4cc(Cl)nn4)ccc(Cl)c3F)c[n+]2[O-])c1 [Example P537]	96.7
Cn1cc(CC(c2ccc(-c3c(-n4cnnn4)ccc(Cl)c3F)c[n+]2[O-])n2cc(-c3ccnc(C(F)(F)F)c3)cn2)cn1 (stereo not shown) [Example P452]	10.8
Cn1ncnc1-c1cnn(C(CCOC(F)F)c2ccc(-c3c(-n4cc(C(F)(F)F)nn4)ccc(Cl)c3F)c[n+]2[O-])c1 (stereo not shown) [Example P757]	31.9
NC(=O)c1ccc(-c2cnn(C(CCOC(F)F)c3ccc(-c4c(-n5cnnn5)ccc(Cl)c4F)c[n+]3[O-])c2)cc1F (single isomer, unassigned) [Example P928]	0.9
Cn1ncnc1-c1cnn([C@H](CCOC(F)F)c2ccc(-c3c(-n4cc(C5CC5)nn4)ccc(Cl)c3F)c[n+]2[O-])c1 [Example P781]	203
O=c1ccccn1CC(c1ccc(-c2c(-n3cnnn3)ccc(Cl)c2F)c[n+]1[O-])n1cc(-c2ccnc(C(F)(F)F)c2)cn1 (stereo not shown) [Example P358]	81.9
Cn1cc(CC(c2ccc(-c3c(-n4cnnn4)ccc(Cl)c3F)c[n+]2[O-])n2cc(-c3ccnc(C(F)(F)F)c3)cn2)nn1 (stereo not shown) [Example P695]	43.7
COc1cc(C(CC2CC2C(N)=O)n2cc(-c3ccc(N)nc3C)cn2)[n+]([O-])cc1-c1c(-n2cnnn2)ccc(Cl)c1F (stereo not shown) [Example P247]	5.8
